What was measured:
dopamine receptors [1] = assay: Test 3 Inhibition of p-chloroamphetamine hyperactivity; assay type: in vivo, mice; details: for ED50, inhibition of pCA induced hyperactivity: Table 2, mice
Method: Test 3 Inhibition of p-chloroamphetamine hyperactivity
C=mean activity of control groups 10-30 minutes post pCA.
T=mean activity of treated groups 10-30 minutes post pCA.
This test is used as an in vivo screen for detection of 5-hydroxytryptamineuptake inhibitors.

dopamine receptors [2] = assay: Dopamine antagonism, overall statement on Tests 1, 2 and 3; details: for antagonist activity at dopaminergic reception (in words): results of Table 2, Tests 1 and 3, 50 mg/kg for Examples 6 and 7
dopamine receptors [3] = assay: Test 1 Inhibition of Amphetamine Induced Stereotypy; assay type: in vivo, rats; details: for ED50, inhibition of amphetamine induced stereotypy: rats
From the text: Test 1 Inhibition of Amphetamine Induced Stereotypy

[4] = Test 5 Increase in Fall Rate From Revolving Drum (ability to induce extrapyramidal effects); assay type: in vivo, mice; details: for TD50 at 1 h: mouse, in vivo, po, mice, one hour after dosing, dose inducing fall rate half of maximum theoretically possible, read-out: ED50, increase in fall rate from revolving drum
Method: Test 5 Increase in Fall Rate From Revolving Drum
Groups of 8 mice were trained to walk on a slowly revolving horizontal drum prior to dosing with various concentrations of the test drugs or vehicle. An hour later the mice were replaced on the drum and the number of times each animal fell during the following 3 minutes was noted (mice were replaced immediately after each fall). […] The doses shown are those calculated to induce a fall rate half that of the maximum theoretically possible.

dopamine receptors [5] = assay: Test 2 Inhibition of Apomorphine Induced Climbing; assay type: in vivo, mice; details: Table I; for ED50, inhibition of apomorphine induced climbing: mice, compound one hour before 10 mg/kg apomorphine, dose reducing climbing score by 50%
[6] = Test 4 Increase in Halothane Induced Sleep Time (sedative potential); assay type: in vivo, mice; details: for ED50, increase in halothane induced sleep time: mice, one hour before 3% halothane, dose increasing duration of loss of righting reflex by 50%
Method: Test 4 Increase in Halothane Induced Sleep Time
Groups of 6 mice received the test compounds or the requisite volume of vehicle p.o. one hour before being placed in a perspex container. A gas mixture containing 3% halothane in oxygen was passed through this container for 5 minutes. Next the mice were removed and placed on their backs and the latency to the restoration of the righting reflex noted.
The doses shown are those calculated to increase the duration of halothane induced loss of righting reflex by 50%.

[7] = Table I, compound one hour before 5 mg/kg d-amphetamine

OC1(c2ccccc2)CCN(Cc2c[nH]c3ccccc23)CC1 [Example 2, 1-(Indol-3-ylmethyl)-4-hydroxy-4-phenylpiperidine]
ED50, inhibition of pCA induced hyperactivity (dopamine receptors [1]; 20 mg/kg pCA ip): 32.6 mg/kg p.o. | antagonist activity at dopaminergic reception (in words) (dopamine receptors [2]): both show activity

OC1(c2ccc(Cl)cc2)CCN(CCc2c[nH]c3ccccc23)CC1 [Example 7, 1-(2-(Indol-3-yl)ethyl)-4-(p-chlorophenyl)-4-hydroxypiperidine, reference compound]
ED50, inhibition of amphetamine induced stereotypy (dopamine receptors [3]; Table 2, 5 mg/kg d-amphetamine): > 50 mg/kg p.o. | ED50, inhibition of pCA induced hyperactivity (dopamine receptors [1]; 20 mg/kg pCA ip): > 50 mg/kg p.o. | antagonist activity at dopaminergic reception (in words) (dopamine receptors [2]): neither of the compounds of Examples 6 and 7 posses significant antagonist activity

OC1(c2ccccc2)CCN(CCc2c[nH]c3ccccc23)CC1 [Example 6, 1-(2-(Indol-3-yl)ethyl)-4-hydroxy-4-phenylpiperidine, reference compound]
ED50, inhibition of amphetamine induced stereotypy (dopamine receptors [3]; Table 2, 5 mg/kg d-amphetamine): > 50 mg/kg p.o. | ED50, inhibition of pCA induced hyperactivity (dopamine receptors [1]; 20 mg/kg pCA ip): > 50 mg/kg p.o. | antagonist activity at dopaminergic reception (in words) (dopamine receptors [2]): neither of the compounds of Examples 6 and 7 posses significant antagonist activity

OC1(c2ccc(Cl)cc2)CCN(Cc2c[nH]c3ccccc23)CC1 [Example 1, 1-(Indol-3-ylmethyl)-4-hydroxy-4-(p-chlorophenyl)piperidine]
ED50, inhibition of amphetamine induced stereotypy (dopamine receptors [3]; Table 2, 5 mg/kg d-amphetamine): 25 mg/kg p.o. | A/B (ED50 Example 1 / ED50 Haloperidol), amphetamine induced stereotypy (dopamine receptors [3]; Table I, ratio to haloperidol): 36 | ED50, inhibition of amphetamine induced stereotypy (dopamine receptors [3]; [7]): 25 mg/kg p.o. | ED50, inhibition of pCA induced hyperactivity (dopamine receptors [1]; 20 mg/kg pCA ip): 10 mg/kg p.o. | A/B (ED50 Example 1 / ED50 Haloperidol), p-chloro amphetamine hyperactivity (dopamine receptors [1]; Table I, ratio to haloperidol): 33 | A/B (ED50 Example 1 / ED50 Haloperidol), fall rate from revolving drum ([4]; Table I, ratio to haloperidol): 56 | TD50 at 1 h ([4]; Table I): 50 mg/kg | unwanted extrapyramidal effects compared with haloperidol (in words) ([4]; versus haloperidol): exhibits an advantage with regard to unwanted extrapyramidal effects | ED50, inhibition of apomorphine induced climbing (dopamine receptors [5]): 20 mg/kg p.o. | A/B (ED50 Example 1 / ED50 Haloperidol), apomorphine induced climbing (dopamine receptors [5]; ratio to haloperidol): 40 | ED50, increase in halothane induced sleep time ([6]; Table I): 200 mg/kg p.o. | A/B (ED50 Example 1 / ED50 Haloperidol), halothane induced sleep time ([6]; Table I, ratio to haloperidol): 1000 | selectivity ratio ([6]; mouse, in vivo, po, ratio of Test 4 dose to doses in Tests 1-3, read-out: dose prolonging halothane-induced sleep relative to doses required to inhibit dopaminergic responses): 8 to 20 | sedative potential compared with haloperidol (in words) ([6]; versus haloperidol): lower than that of haloperidol | dopamine antagonist potency compared with haloperidol (in words) (dopamine receptors [2]; Tests 1, 2 and 3, versus haloperidol): less potent dopamine antagonist than haloperidol | antagonist activity at dopaminergic reception (in words) (dopamine receptors [2]): both show activity | relative potency of Examples 1 and 2 (in words) (dopamine receptors [2]; results of Table 2, Example 1 versus Example 2): the more potent

O=C(CCCN1CCC(O)(c2ccc(Cl)cc2)CC1)c1ccc(F)cc1 [Haloperidol, haloperidol, reference compound]
ED50, inhibition of amphetamine induced stereotypy (dopamine receptors [3]; [7]): 0.7 mg/kg p.o. | ED50, inhibition of p-chloro amphetamine hyperactivity (dopamine receptors [1]; Table I, female mice, 20 mg/kg pCA ip, activity 10-30 minutes post pCA): 0.3 mg/kg p.o. | TD50 at 1 h ([4]; Table I): 0.9 mg/kg | ED50, inhibition of apomorphine induced climbing (dopamine receptors [5]): 0.5 mg/kg p.o. | ED50, increase in halothane induced sleep time ([6]; Table I): 0.2 mg/kg p.o. | dose prolonging halothane-induced sleep compared with doses inhibiting dopaminergic responses (in words) ([6]; Test 4 versus Tests 1-3): prolongs halothane-induced sleep at doses lower than those required to ihibit dopaminergic responses
